What was measured:
MAGL = MAGL (Mus musculus (Mouse), UniProt O35678); assay: In vitro competitive activity-based protein profiling, MAGL (mouse); assay type: biochemical; details: for inhibition at 1 µM: read-out: MAGL % inh. 1 μM (mouse)
Method in brief: (§1)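 Residual MAGL and FAAH activity came from in-gel fluorescence after competition between inhibitor (30 min preincubation, 37° C) and the activity-based probe FP-Rh or HT-01 (30 min, 37° C) in mouse or human tissue or cell proteomes.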

FAAH = FAAH (Mus musculus (Mouse), UniProt O08914); assay: In vitro competitive activity-based protein profiling, FAAH (mouse); assay type: biochemical; details: for inhibition at 1 µM: read-out: FAAH % inh. 1 μM (mouse)
Chain of FAAH (O08914 whole entry): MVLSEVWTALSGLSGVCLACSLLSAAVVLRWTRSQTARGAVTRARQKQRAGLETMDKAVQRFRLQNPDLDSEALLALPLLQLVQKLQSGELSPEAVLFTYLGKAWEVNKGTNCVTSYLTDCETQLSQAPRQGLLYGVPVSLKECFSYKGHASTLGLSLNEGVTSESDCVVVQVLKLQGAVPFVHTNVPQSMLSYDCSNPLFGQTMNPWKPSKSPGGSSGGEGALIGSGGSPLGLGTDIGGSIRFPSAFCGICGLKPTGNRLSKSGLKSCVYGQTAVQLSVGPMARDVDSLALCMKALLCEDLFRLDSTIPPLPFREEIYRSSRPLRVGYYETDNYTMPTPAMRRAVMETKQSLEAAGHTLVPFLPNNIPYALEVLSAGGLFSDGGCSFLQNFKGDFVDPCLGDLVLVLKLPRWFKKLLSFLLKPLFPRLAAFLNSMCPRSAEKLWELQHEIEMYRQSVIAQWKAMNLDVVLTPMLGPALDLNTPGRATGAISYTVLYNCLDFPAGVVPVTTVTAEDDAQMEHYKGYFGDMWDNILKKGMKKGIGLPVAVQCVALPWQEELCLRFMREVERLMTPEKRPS
Method in brief: as §1

Chain of MAGL (O35678 whole entry): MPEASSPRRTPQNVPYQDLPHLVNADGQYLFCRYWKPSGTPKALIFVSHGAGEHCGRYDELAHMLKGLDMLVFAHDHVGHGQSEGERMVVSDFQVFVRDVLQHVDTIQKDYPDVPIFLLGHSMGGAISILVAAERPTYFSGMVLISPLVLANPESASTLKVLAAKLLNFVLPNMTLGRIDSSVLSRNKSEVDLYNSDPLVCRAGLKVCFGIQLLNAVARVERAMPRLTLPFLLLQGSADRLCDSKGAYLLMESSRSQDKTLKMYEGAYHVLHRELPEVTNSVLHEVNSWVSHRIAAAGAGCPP

Row | Structure (SMILES) | inhibition at 1 µM (MAGL) [%] | inhibition at 1 µM (FAAH) [%] | IC50 (MAGL) [nM] | IC50 (FAAH) [nM]
1 | CC(=O)N(C)c1cnn(C(=O)N2C[C@H]3C[C@@H](N(C)Cc4ccc(N5CCCC5)c(C(F)(F)F)c4)C[C@H]3C2)c1 [Example 153, N-methyl-N-(1-(cis-5-(methyl(4-(pyrrolidin-1-yl)-3-(trifluoromethyl)benzyl)amino)octahydrocyclopenta[c]pyrrole-2-carbonyl)-1H-pyrazol-4-yl)acetamide] | ≥ 75 | ≥ 75 | – | –
2 | CC(=O)N(C)c1cnn(C(=O)N2C[C@H]3C[C@@H](N(C)Cc4cc(N5CCCC5)cc(C(F)(F)F)c4)C[C@H]3C2)c1 [Example 154, N-methyl-N-(1-(cis-5-(methyl(3-(pyrrolidin-1-yl)-5-(trifluoromethyl)benzyl)amino)octahydrocyclopenta[c]pyrrole-2-carbonyl)-1H-pyrazol-4-yl)acetamide] | ≥ 75 | ≥ 75 | – | –
3 | CC(=O)N(C)c1cnn(C(=O)N2C[C@H]3C[C@H](N(C)Cc4ccc(N5C6CCC5COC6)cc4C(F)(F)F)C[C@H]3C2)c1 [Example 155, N-(1-(trans-5-((4-(3-oxa-8-azabicyclo[3.2.1]octan-8-yl)-2-(trifluoromethyl)benzyl)(methyl)amino)octahydrocyclopenta[c]pyrrole-2-carbonyl)-1H-pyrazol-4-yl)-N-methylacetamide] | ≥ 75 | ≥ 75 | – | –
4 | CC(=O)N(C)c1cnn(C(=O)N2C[C@H]3C[C@H](N(C)Cc4ccc(N5C6CCC5COC6)c(C(F)(F)F)c4)C[C@H]3C2)c1 [Example 156, N-(1-(trans-5-((4-(3-oxa-8-azabicyclo[3.2.1]octan-8-yl)-3-(trifluoromethyl)benzyl)(methyl)amino)octahydrocyclopenta[c]pyrrole-2-carbonyl)-1H-pyrazol-4-yl)-N-methylacetamide] | ≥ 75 | ≥ 75 | 100 to 1000 | ≤ 100
5 | CC(=O)N(C)c1cnn(C(=O)N2C[C@H]3C[C@H](N(C)Cc4cc(N5C6CCC5COC6)cc(C(F)(F)F)c4)C[C@H]3C2)c1 [Example 157, N-(1-(trans-5-((3-(3-oxa-8-azabicyclo[3.2.1]octan-8-yl)-5-(trifluoromethyl)benzyl)(methyl)amino)octahydrocyclopenta[c]pyrrole-2-carbonyl)-1H-pyrazol-4-yl)-N-methylacetamide] | ≥ 75 | ≥ 75 | – | –
6 | CC(=O)N(C)c1cnn(C(=O)N2C[C@H]3C[C@H](N(C)Cc4ccc(N5CCCC5)cc4C(F)(F)F)C[C@H]3C2)c1 [Example 158, N-methyl-N-(1-(trans-5-(methyl(4-(pyrrolidin-1-yl)-2-(trifluoromethyl)benzyl)amino)octahydrocyclopenta[c]pyrrole-2-carbonyl)-1H-pyrazol-4-yl)acetamide] | ≥ 75 | ≥ 75 | – | –
7 | CC(=O)N(C)c1cnn(C(=O)N2C[C@H]3C[C@H](N(C)Cc4ccc(N5CCCC5)c(C(F)(F)F)c4)C[C@H]3C2)c1 [Example 159, N-methyl-N-(1-(trans-5-(methyl(4-(pyrrolidin-1-yl)-3-(trifluoromethyl)benzyl)amino)octahydrocyclopenta[c]pyrrole-2-carbonyl)-1H-pyrazol-4-yl)acetamide] | ≥ 75 | ≥ 75 | – | –
8 | CC(=O)N(C)c1cnn(C(=O)N2C[C@H]3C[C@H](N(C)Cc4cc(N5CCCC5)cc(C(F)(F)F)c4)C[C@H]3C2)c1 [Example 160, N-methyl-N-(1-(trans-5-(methyl(3-(pyrrolidin-1-yl)-5-(trifluoromethyl)benzyl)amino)octahydrocyclopenta[c]pyrrole-2-carbonyl)-1H-pyrazol-4-yl)acetamide] | ≥ 75 | ≥ 75 | – | –
9 | CC(=O)N(C)c1cnn(C(=O)N2C[C@H]3C[C@@H](N(C)Cc4cc(Cl)ccc4C(F)(F)F)C[C@H]3C2)c1 [Example 161, N-(1-(cis-5-((5-chloro-2-(trifluoromethyl)benzyl)(methyl)amino)octahydrocyclopenta[c]pyrrole-2-carbonyl)-1H-pyrazol-4-yl)-N-methylacetamide] | ≥ 75 | ≥ 75 | ≤ 100 | ≤ 100
10 | CC(=O)N(C)c1cnn(C(=O)N2C[C@H]3C[C@@H](N(C)Cc4cc(Cl)ccc4Cl)C[C@H]3C2)c1 [Example 162, N-(1-(cis-5-((2,5-dichlorobenzyl)(methyl)amino)octahydrocyclopenta[c]pyrrole-2-carbonyl)-1H-pyrazol-4-yl)-N-methylacetamide] | ≥ 75 | ≥ 75 | – | –
11 | CC(=O)N(C)c1cnn(C(=O)N2C[C@H]3C[C@@H](N(C)Cc4cc(C(F)(F)F)ccc4Cl)C[C@H]3C2)c1 [Example 163, N-(1-(cis-5-((2-chloro-5-(trifluoromethyl)benzyl)(methyl)amino)octahydrocyclopenta[c]pyrrole-2-carbonyl)-1H-pyrazol-4-yl)-N-methylacetamide] | ≥ 75 | ≥ 75 | – | –
12 | CC(=O)N(C)c1cnn(C(=O)N2C[C@H]3C[C@H](N(C)Cc4cc(Cl)ccc4C(F)(F)F)C[C@H]3C2)c1 [Example 164, N-(1-(trans-5-((5-chloro-2-(trifluoromethyl)benzyl)(methyl)amino)octahydrocyclopenta[c]pyrrole-2-carbonyl)-1H-pyrazol-4-yl)-N-methylacetamide] | ≥ 75 | ≥ 75 | ≤ 100 | ≤ 100
13 | CC(=O)N(C)c1cnn(C(=O)N2C[C@H]3C[C@H](N(C)Cc4cc(Cl)ccc4Cl)C[C@H]3C2)c1 [Example 165, N-(1-(trans-5-((2,5-dichlorobenzyl)(methyl)amino)octahydrocyclopenta[c]pyrrole-2-carbonyl)-1H-pyrazol-4-yl)-N-methylacetamide] | ≥ 75 | ≥ 75 | – | –
14 | CC(=O)N(C)c1cnn(C(=O)N2C[C@H]3C[C@H](N(C)Cc4cc(C(F)(F)F)ccc4Cl)C[C@H]3C2)c1 [Example 166, N-(1-(trans-5-((2-chloro-5-(trifluoromethyl)benzyl)(methyl)amino)octahydrocyclopenta[c]pyrrole-2-carbonyl)-1H-pyrazol-4-yl)-N-methylacetamide] | ≥ 75 | ≥ 75 | – | –
15 | CC(=O)N(C)c1cnn(C(=O)N2C[C@H]3C[C@@H](N(C)Cc4cc(N5CCCC5)ccc4C(F)(F)F)C[C@H]3C2)c1 [Example 167, N-methyl-N-(1-(cis-5-(methyl(5-(pyrrolidin-1-yl)-2-(trifluoromethyl)benzyl)amino)octahydrocyclopenta[c]pyrrole-2-carbonyl)-1H-pyrazol-4-yl)acetamide] | ≥ 75 | ≥ 75 | – | –
16 | CC(=O)N(C)c1cnn(C(=O)N2C[C@H]3C[C@@H](N(C)Cc4cc(C(F)(F)F)ccc4N4CCCC4)C[C@H]3C2)c1 [Example 168, N-methyl-N-(1-(cis-5-(methyl(2-(pyrrolidin-1-yl)-5-(trifluoromethyl)benzyl)amino)octahydrocyclopenta[c]pyrrole-2-carbonyl)-1H-pyrazol-4-yl)acetamide] | ≥ 75 | 50 to 75 | – | –
17 | CC(=O)N(C)c1cnn(C(=O)N2C[C@H]3C[C@@H](N(Cc4ccccc4Cl)C(C)=O)C[C@H]3C2)c1 [Example 169, N-(2-chlorobenzyl)-N-(cis-2-(4-(N-methylacetamido)-1H-pyrazole-1-carbonyl)octahydrocyclopenta[c]pyrrol-5-yl)acetamide] | ≥ 75 | 25 to 50 | – | –
18 | CC(=O)N(C)c1cnn(C(=O)N2C[C@H]3C[C@@H](N(Cc4cccc(Cl)c4)C(C)=O)C[C@H]3C2)c1 [Example 170, N-(3-chlorobenzyl)-N-(cis-2-(4-(N-methylacetamido)-1H-pyrazole-1-carbonyl)octahydrocyclopenta[c]pyrrol-5-yl)acetamide] | ≥ 75 | 25 to 50 | – | –
19 | CC(=O)N(C)c1cnn(C(=O)N2C[C@H]3C[C@@H](N(Cc4ccc(Cl)cc4)C(C)=O)C[C@H]3C2)c1 [Example 171, N-(4-chlorobenzyl)-N-(cis-2-(4-(N-methylacetamido)-1H-pyrazole-1-carbonyl)octahydrocyclopenta[c]pyrrol-5-yl)acetamide] | ≥ 75 | 25 to 50 | – | –
20 | CC(=O)N(C)c1cnn(C(=O)N2C[C@H]3C[C@H](N(Cc4cccc(Cl)c4)C(C)=O)C[C@H]3C2)c1 [Example 173, N-(3-chlorobenzyl)-N-(trans-2-(4-(N-methylacetamido)-1H-pyrazole-1-carbonyl)octahydrocyclopenta[c]pyrrol-5-yl)acetamide] | ≥ 75 | 0 to 25 | – | –
21 | CC(=O)N(C)c1cnn(C(=O)N2C[C@H]3C[C@H](N(Cc4ccc(Cl)cc4)C(C)=O)C[C@H]3C2)c1 [Example 174, N-(4-chlorobenzyl)-N-(trans-2-(4-(N-methylacetamido)-1H-pyrazole-1-carbonyl)octahydrocyclopenta[c]pyrrol-5-yl)acetamide] | ≥ 75 | 0 to 25 | – | –
22 | CC(=O)N(C)c1cnn(C(=O)N2CC3CN(Cc4ccc(F)cc4)CC3C2)c1 (stereo not drawn) [Example 178, N-(1-(5-(4-fluorobenzyl)octahydropyrrolo[3,4-c]pyrrole-2-carbonyl)-1H-pyrazol-4-yl)-N-methylacetamide] | 25 to 50 | ≥ 75 | 1000 to 10000 | 100 to 1000
23 | COc1ccc(CN2CC3CN(C(=O)n4cc(N(C)C(C)=O)cn4)CC3C2)cc1 (stereo not drawn) [Example 179, N-(1-(5-(4-methoxybenzyl)octahydropyrrolo[3,4-c]pyrrole-2-carbonyl)-1H-pyrazol-4-yl)-N-methylacetamide] | 25 to 50 | ≥ 75 | – | –

Reference: patent US10323038B2, “Pyrazole compounds and methods of making and using same” (ABIDE THERAPEUTICS, INC., priority 2015, dated 2019)
